Experimental data published in paper PMC10771525 (Communications Biology, 2024).
Where no end group is shown, it is not given here.

What was measured:
CNR2 = CNR2 (Homo sapiens, UniProt P34972); conditions: reference agonist, CNR2, CHO-K1, Arrestin
CNR1 = CNR1 (Homo sapiens, UniProt P21554); conditions: reference agonist, CNR1, CHO-K1, Arrestin
SSTR2 = SSTR2 (Homo sapiens, UniProt P30874); conditions: reference agonist, SSTR2, CHO-K1, Arrestin
SSTR5 = SSTR5 (Homo sapiens, UniProt P35346); conditions: reference agonist, SSTR5, CHO-K1, Arrestin
CALCR + RAMP2 = CALCR + RAMP2 (Homo sapiens, UniProt O60895+P30988); conditions: reference agonist, CALCR + RAMP2, CHO-K1, Arrestin
CALCR = CALCR (Homo sapiens, UniProt P30988); conditions: reference agonist, U2OS, Arrestin
CALCR + RAMP3 = CALCR + RAMP3 (Homo sapiens, UniProt O60896+P30988); conditions: reference agonist, CALCR + RAMP3, CHO-K1, Arrestin
MRGPRX2 = target: T1, MRGPRX2 (Homo sapiens, UniProt Q96LB1); experiment: GPCR panel (control), Arrestin, CHO-K1; type: cell-based; conditions: reference agonist
T1 sequence (Q96LB1 1-330): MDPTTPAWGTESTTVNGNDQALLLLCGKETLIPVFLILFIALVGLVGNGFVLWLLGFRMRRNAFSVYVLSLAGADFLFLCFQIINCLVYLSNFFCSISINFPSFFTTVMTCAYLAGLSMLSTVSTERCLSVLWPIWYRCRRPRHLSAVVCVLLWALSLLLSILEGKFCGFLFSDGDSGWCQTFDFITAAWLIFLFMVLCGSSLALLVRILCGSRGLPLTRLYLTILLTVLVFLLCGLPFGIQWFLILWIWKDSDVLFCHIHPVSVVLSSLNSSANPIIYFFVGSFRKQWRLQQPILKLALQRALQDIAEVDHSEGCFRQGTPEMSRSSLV

F2RL3 = target: T2, F2RL3 (Homo sapiens, UniProt Q96RI0); experiment: GPCR panel (control), Arrestin, CHO-K1; type: cell-based; conditions: reference agonist
T2 construct: expressed in transfected cells; host or cells: CHO-K1

FPR1 = target: T3, FPR1 (Homo sapiens, UniProt P21462); experiment: GPCR panel (control), Arrestin, CHO-K1; type: cell-based; conditions: reference agonist
T3 construct: expressed in transfected cells; host or cells: CHO-K1

FPRL1 = target: T4, FPRL1 (Homo sapiens, UniProt P25090); experiment: GPCR panel (control), Arrestin, CHO-K1; type: cell-based; conditions: reference agonist
T4 construct: expressed in transfected cells; host or cells: CHO-K1

CRHR2 = target: T5, CRHR2 (Homo sapiens, UniProt Q13324); experiment: GPCR panel (control), Arrestin, CHO-K1; type: cell-based; conditions: reference agonist
T5 construct: expressed in transfected cells; host or cells: CHO-K1

PTHR1 = target: T6, PTHR1 (Homo sapiens, UniProt Q03431); experiment: GPCR panel (control), Arrestin, CHO-K1; type: cell-based; conditions: reference agonist
T6 construct: expressed in transfected cells; host or cells: CHO-K1

EDNRA = EDNRA (Homo sapiens, UniProt P25101); conditions: reference agonist, CHO-K1, Arrestin
EDNRB = target: T7, EDNRB (Homo sapiens, UniProt P24530); experiment: GPCR panel (control), Arrestin, CHO-K1; type: cell-based; conditions: reference agonist
T7 construct: expressed in transfected cells; host or cells: CHO-K1

OPRM1 = OPRM1 (Homo sapiens, UniProt P35372); conditions: reference agonist, OPRM1, U2OS, Arrestin
MC3R = MC3R (Homo sapiens, UniProt P41968); conditions: reference agonist, CHO-K1, Arrestin
MC1R = MC1R (Homo sapiens, UniProt Q01726); conditions: reference agonist, CHO-K1, Arrestin
MC5R = MC5R (Homo sapiens, UniProt P33032); conditions: reference agonist, CHO-K1, Arrestin
TACR3 = target: T8, TACR3 (Homo sapiens, UniProt P29371); experiment: GPCR panel (control), Arrestin, CHO-K1; type: cell-based; conditions: reference agonist
T8 construct: expressed in transfected cells; host or cells: CHO-K1

ADCYAP1R1 = ADCYAP1R1 (Homo sapiens, UniProt P41586); conditions: reference agonist, ADCYAP1R1, CHO-K1, Arrestin
UTR2 = target: T9, UTR2 (Homo sapiens, UniProt Q9UKP6); experiment: GPCR panel (control), Arrestin, CHO-K1; type: cell-based; conditions: reference agonist
T9 construct: expressed in transfected cells; host or cells: CHO-K1

DRD2S = DRD2S (Homo sapiens, UniProt P14416); conditions: reference agonist, CHO-K1, Arrestin
DRD2L = DRD2L (Homo sapiens, UniProt P14416); conditions: reference agonist, CHO-K1, Arrestin
DRD4 = DRD4 (Homo sapiens, UniProt P21917); conditions: reference agonist, DRD4, CHO-K1, Arrestin
OXTR = target: T10, OXTR (Homo sapiens, UniProt P30559); experiment: GPCR panel (control), Arrestin, CHO-K1; type: cell-based; conditions: reference agonist
T10 construct: expressed in transfected cells; host or cells: CHO-K1

F2RL1 = target: T11, F2RL1 (Homo sapiens, UniProt P55085); experiment: GPCR panel (control), Arrestin, U2OS; type: cell-based; conditions: reference agonist
T11 construct: expressed in transfected cells; host or cells: U2OS

SCTR = target: T12, SCTR (Homo sapiens, UniProt P47872); experiment: GPCR panel (control), Arrestin, CHO-K1; type: cell-based; conditions: reference agonist
T12 construct: expressed in transfected cells; host or cells: CHO-K1

GLP1R = GLP1R (Homo sapiens, UniProt P43220); conditions: reference agonist, CHO-K1, Arrestin
MLNR = target: T13, MLNR (Homo sapiens, UniProt O43193); experiment: GPCR panel (control), Arrestin, CHO-K1; type: cell-based; conditions: reference agonist
T13 construct: expressed in transfected cells; host or cells: CHO-K1

CHRM5 = CHRM5 (Homo sapiens, UniProt P08912); experiment: GPCR panel (control), Arrestin, CHO-K1; type: cell-based; conditions: reference agonist
CHRM4 = CHRM4 (Homo sapiens, UniProt P08173); experiment: GPCR panel (control), Arrestin, CHO-K1; type: cell-based; conditions: reference agonist
CHRM2 = CHRM2 (Homo sapiens, UniProt P08172); conditions: reference agonist, CHRM2, CHO-K1, Arrestin
PTGER2 = PTGER2 (Homo sapiens, UniProt P43116); experiment: GPCR panel (control), Arrestin, CHO-K1; type: cell-based; conditions: reference agonist
PTGER3 = PTGER3 (Homo sapiens, UniProt P43115); experiment: GPCR panel (control), Arrestin, CHO-K1; type: cell-based; conditions: reference agonist
PTGER4 = PTGER4 (Homo sapiens, UniProt P35408); experiment: GPCR panel (control), Arrestin, HEK-293; type: cell-based; conditions: reference agonist, PTGER4, HEK-293, Arrestin
NMU1R = target: T14, NMU1R (Homo sapiens, UniProt Q9HB89); experiment: GPCR panel (control), Arrestin, U2OS; type: cell-based; conditions: reference agonist
T14 construct: expressed in transfected cells; host or cells: U2OS

BDKRB2 = target: T15, BDKRB2 (Homo sapiens, UniProt P30411); experiment: GPCR panel (control), Arrestin, CHO-K1; type: cell-based; conditions: reference agonist
T15 construct: expressed in transfected cells; host or cells: CHO-K1

PTHR2 = target: T16, PTHR2 (Homo sapiens, UniProt P49190); experiment: GPCR panel (control), Arrestin, CHO-K1; type: cell-based; conditions: reference agonist
T16 construct: expressed in transfected cells; host or cells: CHO-K1

OPRL1 = OPRL1 (Homo sapiens, UniProt P41146); conditions: reference agonist, OPRL1, CHO-K1, Arrestin
RXFP3 = target: T17, RXFP3 (Homo sapiens, UniProt Q9NSD7); experiment: GPCR panel (control), Arrestin, U2OS; type: cell-based; conditions: reference agonist
T17 construct: expressed in transfected cells; host or cells: U2OS

HSR1A = HSR1A (Homo sapiens, UniProt Q92847); conditions: reference agonist, U2OS, Arrestin
GPR120 = GPR120 (Homo sapiens, UniProt Q5NUL3); experiment: GPCR panel (control), Arrestin, CHO-K1; type: cell-based; conditions: reference agonist
PPYR1 (NPY4) = target: T18, PPYR1 (NPY4) (Homo sapiens, UniProt P50391); experiment: GPCR panel (control), Arrestin, CHO-K1; type: cell-based; conditions: reference agonist
T18 construct: expressed in transfected cells; host or cells: CHO-K1

HCRTR1 = target: T19, HCRTR1 (Homo sapiens, UniProt O43613); experiment: GPCR panel (control), Arrestin, CHO-K1; type: cell-based; conditions: reference agonist
T19 construct: expressed in transfected cells; host or cells: CHO-K1

AGTR1 = AGTR1 (Homo sapiens, UniProt P30556); conditions: reference agonist, AGTR1, CHO-K1, Arrestin
F2R = target: T20, F2R (Homo sapiens, UniProt P25116); experiment: GPCR panel (control), Arrestin, CHO-K1; type: cell-based; conditions: reference agonist
T20 construct: expressed in transfected cells; host or cells: CHO-K1

ADRA1B = ADRA1B (Homo sapiens, UniProt P35368); experiment: GPCR panel (control), Arrestin, CHO-K1; type: cell-based; conditions: reference agonist
CCR9 = experiment: GPCR panel (control), Arrestin, CHO-K1; type: cell-based, human; conditions: reference agonist

PTGER4, sequence (P35408 whole entry): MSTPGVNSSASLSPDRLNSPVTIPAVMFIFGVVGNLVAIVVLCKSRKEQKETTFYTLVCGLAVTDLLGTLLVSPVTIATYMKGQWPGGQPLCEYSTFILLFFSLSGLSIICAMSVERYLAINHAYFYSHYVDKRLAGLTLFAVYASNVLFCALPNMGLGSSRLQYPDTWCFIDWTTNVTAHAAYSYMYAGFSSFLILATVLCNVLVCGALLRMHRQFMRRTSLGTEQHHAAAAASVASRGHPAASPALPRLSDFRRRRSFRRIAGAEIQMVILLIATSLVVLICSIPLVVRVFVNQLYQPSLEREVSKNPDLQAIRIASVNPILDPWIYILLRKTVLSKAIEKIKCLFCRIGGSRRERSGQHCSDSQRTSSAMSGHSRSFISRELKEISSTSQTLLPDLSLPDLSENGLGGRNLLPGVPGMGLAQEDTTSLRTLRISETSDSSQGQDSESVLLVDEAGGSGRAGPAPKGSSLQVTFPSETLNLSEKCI
OPRL1, sequence (P41146 whole entry): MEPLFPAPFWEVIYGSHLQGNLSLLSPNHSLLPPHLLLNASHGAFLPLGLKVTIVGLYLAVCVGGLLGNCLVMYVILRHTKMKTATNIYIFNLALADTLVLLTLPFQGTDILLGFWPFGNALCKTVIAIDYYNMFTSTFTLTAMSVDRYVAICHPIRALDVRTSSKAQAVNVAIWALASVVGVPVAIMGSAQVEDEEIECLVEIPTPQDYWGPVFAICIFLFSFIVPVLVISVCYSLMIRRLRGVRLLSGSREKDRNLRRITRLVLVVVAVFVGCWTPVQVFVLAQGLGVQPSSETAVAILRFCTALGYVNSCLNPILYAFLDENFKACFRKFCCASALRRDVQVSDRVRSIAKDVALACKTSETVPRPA
T11 sequence (P55085 26-397): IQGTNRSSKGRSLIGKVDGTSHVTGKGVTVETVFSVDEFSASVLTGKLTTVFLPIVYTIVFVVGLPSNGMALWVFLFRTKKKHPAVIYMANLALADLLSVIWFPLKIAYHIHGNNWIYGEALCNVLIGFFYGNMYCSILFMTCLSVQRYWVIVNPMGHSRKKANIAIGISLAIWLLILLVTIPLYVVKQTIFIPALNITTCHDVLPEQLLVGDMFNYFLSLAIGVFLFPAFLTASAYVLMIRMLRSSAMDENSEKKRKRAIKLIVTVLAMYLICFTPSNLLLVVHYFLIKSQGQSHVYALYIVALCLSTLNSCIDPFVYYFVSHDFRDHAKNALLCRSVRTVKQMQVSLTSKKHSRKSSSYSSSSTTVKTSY
HSR1A, sequence (Q92847 whole entry): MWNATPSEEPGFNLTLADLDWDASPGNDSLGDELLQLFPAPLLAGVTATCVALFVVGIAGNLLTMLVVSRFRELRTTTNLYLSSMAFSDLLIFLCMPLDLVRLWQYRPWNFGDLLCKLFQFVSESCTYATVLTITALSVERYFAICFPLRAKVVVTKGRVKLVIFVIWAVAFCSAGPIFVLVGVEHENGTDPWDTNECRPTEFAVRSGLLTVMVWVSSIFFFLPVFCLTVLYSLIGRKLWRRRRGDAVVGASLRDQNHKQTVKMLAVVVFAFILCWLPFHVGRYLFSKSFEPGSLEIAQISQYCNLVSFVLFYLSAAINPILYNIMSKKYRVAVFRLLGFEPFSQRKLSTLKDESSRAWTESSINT
T20 sequence (P25116 22-425): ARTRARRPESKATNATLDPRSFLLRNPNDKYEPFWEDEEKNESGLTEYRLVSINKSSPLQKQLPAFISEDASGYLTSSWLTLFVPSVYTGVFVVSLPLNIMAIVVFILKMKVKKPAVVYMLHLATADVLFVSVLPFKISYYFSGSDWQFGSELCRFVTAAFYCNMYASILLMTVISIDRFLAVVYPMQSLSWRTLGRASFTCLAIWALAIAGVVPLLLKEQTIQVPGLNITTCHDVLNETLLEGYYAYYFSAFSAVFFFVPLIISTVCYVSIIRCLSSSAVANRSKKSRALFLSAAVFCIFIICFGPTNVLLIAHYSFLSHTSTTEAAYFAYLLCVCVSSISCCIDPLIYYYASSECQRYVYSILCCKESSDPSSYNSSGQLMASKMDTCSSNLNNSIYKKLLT
CALCR, sequence (P30988 25-474): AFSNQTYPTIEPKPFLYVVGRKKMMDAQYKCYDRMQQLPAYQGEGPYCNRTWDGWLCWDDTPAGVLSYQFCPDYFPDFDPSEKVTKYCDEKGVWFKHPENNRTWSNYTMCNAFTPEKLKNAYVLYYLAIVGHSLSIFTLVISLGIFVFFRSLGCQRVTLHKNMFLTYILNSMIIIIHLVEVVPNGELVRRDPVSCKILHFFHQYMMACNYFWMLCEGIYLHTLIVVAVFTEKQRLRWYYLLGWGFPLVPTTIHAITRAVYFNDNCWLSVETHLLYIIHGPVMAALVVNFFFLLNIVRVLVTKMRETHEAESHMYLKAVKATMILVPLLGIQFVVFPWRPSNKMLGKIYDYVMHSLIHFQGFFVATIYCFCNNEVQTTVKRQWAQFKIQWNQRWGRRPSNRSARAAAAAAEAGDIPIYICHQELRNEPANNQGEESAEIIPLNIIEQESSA
CALCR + RAMP3, sequence (P30988 25-474): as above
CALCR + RAMP3, sequence (O60896 24-148 partner): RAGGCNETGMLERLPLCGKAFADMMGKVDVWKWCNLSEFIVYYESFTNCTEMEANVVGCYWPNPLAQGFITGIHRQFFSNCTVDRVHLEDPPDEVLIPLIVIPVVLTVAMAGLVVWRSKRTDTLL
CALCR + RAMP2, sequence (P30988 25-474): as the sequence (P30988 25-474) above
CALCR + RAMP2, sequence (O60895 43-175 partner): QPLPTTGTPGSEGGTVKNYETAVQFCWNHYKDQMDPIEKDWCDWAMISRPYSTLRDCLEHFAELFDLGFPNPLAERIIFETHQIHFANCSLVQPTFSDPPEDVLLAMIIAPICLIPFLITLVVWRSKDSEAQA
T17 sequence (Q9NSD7 whole entry): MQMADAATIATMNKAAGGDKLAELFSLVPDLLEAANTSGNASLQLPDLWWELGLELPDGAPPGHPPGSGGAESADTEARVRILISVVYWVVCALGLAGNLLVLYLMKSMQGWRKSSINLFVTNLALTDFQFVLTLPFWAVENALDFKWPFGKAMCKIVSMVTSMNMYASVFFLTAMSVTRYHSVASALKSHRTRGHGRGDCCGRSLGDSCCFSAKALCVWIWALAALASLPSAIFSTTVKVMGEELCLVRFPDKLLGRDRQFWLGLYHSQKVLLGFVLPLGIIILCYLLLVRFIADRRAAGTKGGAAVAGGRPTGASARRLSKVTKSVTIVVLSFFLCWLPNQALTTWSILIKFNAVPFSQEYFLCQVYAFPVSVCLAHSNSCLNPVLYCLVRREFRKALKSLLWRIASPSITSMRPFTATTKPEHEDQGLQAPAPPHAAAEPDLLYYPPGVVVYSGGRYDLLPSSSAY
MC5R, sequence (P33032 whole entry): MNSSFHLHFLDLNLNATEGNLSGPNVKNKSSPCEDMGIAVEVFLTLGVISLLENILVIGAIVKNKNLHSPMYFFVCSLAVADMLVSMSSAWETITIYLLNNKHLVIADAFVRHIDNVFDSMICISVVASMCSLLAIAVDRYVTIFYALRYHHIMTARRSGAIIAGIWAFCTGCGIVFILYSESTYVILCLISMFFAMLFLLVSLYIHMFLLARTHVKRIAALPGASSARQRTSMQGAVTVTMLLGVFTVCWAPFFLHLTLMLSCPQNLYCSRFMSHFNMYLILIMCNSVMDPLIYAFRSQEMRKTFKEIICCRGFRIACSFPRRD
T7 sequence (P24530 27-442): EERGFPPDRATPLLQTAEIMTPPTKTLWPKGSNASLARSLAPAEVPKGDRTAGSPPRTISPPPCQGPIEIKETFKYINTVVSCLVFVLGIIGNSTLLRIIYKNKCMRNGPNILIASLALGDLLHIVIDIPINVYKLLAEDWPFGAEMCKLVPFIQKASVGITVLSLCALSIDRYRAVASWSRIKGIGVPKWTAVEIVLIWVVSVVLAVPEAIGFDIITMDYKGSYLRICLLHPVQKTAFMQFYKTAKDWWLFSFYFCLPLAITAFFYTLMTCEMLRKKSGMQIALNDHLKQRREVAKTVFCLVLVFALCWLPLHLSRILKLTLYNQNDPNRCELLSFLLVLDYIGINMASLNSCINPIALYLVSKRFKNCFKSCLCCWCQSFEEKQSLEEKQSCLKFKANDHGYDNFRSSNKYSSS
T8 sequence (P29371 whole entry): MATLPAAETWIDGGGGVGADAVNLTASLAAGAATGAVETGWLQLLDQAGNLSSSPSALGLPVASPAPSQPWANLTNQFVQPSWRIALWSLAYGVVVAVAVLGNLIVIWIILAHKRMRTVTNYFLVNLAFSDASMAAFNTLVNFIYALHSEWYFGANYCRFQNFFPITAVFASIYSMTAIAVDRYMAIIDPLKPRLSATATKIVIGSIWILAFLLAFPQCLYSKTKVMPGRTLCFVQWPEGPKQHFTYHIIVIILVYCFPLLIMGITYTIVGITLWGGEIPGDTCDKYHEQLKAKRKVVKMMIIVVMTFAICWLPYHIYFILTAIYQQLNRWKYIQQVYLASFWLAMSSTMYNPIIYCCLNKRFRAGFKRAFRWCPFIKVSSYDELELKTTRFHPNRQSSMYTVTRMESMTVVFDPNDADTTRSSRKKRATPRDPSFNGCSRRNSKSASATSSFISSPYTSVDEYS
T13 sequence (O43193 whole entry): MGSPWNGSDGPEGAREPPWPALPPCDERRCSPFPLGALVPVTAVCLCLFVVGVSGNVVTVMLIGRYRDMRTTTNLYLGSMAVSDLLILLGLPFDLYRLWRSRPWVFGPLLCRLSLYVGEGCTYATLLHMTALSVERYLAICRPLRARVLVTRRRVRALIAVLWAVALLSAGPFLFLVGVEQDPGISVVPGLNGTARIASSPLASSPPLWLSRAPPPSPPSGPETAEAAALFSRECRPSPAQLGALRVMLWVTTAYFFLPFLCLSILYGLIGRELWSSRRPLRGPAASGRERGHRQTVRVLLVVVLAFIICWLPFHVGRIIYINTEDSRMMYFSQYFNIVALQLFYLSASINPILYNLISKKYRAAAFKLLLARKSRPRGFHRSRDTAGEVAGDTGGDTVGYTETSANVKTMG

CCCCCCC(C)(C)c1ccc([C@@H]2C[C@H](O)CC[C@H]2CCCO)c(O)c1 [CP55940]
EC80 (CNR2): 0.14 µM
EC80 (CNR1): 0.17 µM

Somatostatin 28
EC80 (SSTR2): 0.093 µM
EC80 (SSTR5): 1.3 µM

Calcitonin
EC80 (CALCR + RAMP2): 0.44 µM
EC80 (CALCR): 1.6 µM
EC80 (CALCR + RAMP3): 8.9 µM

Cortistatin-14
EC80 (MRGPRX2): 8.1 µM

AYPGKF-NH2
EC80 (F2RL3): 370 µM

WKYMVm-NH2
EC80 (FPR1): 0.62 µM
EC80 (FPRL1): 0.067 µM

Sauvagine
EC80 (CRHR2): 0.46 µM

PTH(1-34)
EC80 (PTHR1): 0.28 µM

Endothelin-1
EC80 (EDNRA): 0.19 µM

Endothelin-3
EC80 (EDNRB): 0.26 µM

met-Enkephalin
EC80 (OPRM1): 54 µM

Melanotan II
EC80 (MC3R): 0.037 µM
EC80 (MC1R): 0.03 µM
EC80 (MC5R): 0.34 µM

CSCC[C@H](NC(=O)[C@H](CC(C)C)NC(=O)CNC(=O)[C@H](Cc1ccccc1)NC(=O)[C@H](Cc1ccccc1)NC(=O)[C@H](CCC(N)=O)NC(=O)[C@H](CCC(N)=O)NC(=O)[C@@H]1CCCN1C(=O)[C@H](CCCCN)NC(=O)[C@@H]1CCCN1C(=O)[C@@H](N)CCCN=C(N)N)C(N)=O [Substance P]
EC80 (TACR3): 0.92 µM

PACAP-27
EC80 (ADCYAP1R1): 0.14 µM

CC(C)[C@H](NC(=O)[C@@H]1CSSC[C@H](NC(=O)[C@H](CC(=O)O)NC(=O)[C@@H]2CCCN2C(=O)[C@@H](NC(=O)[C@@H](N)CCC(=O)O)[C@@H](C)O)C(=O)N[C@@H](Cc2ccccc2)C(=O)N[C@@H](Cc2c[nH]c3ccccc23)C(=O)N[C@@H](CCCCN)C(=O)N[C@@H](Cc2ccc(O)cc2)C(=O)N1)C(=O)O [Urotensin II]
EC80 (UTR2): 0.031 µM

NCCc1ccc(O)c(O)c1 [Dopamine]
EC80 (DRD2S): 5.4 µM
EC80 (DRD2L): 18 µM
EC80 (DRD4): 21 µM

CC[C@H](C)[C@@H]1NC(=O)[C@H](Cc2ccc(O)cc2)NC(=O)[C@@H](N)CSSC[C@@H](C(=O)N2CCC[C@H]2C(=O)N[C@@H](CC(C)C)C(=O)NCC(N)=O)NC(=O)[C@H](CC(N)=O)NC(=O)[C@H](CCC(N)=O)NC1=O [Oxytocin]
EC80 (OXTR): 0.28 µM

SLIGRL-NH2
EC80 (F2RL1): 24 µM

Secretin
EC80 (SCTR): 0.074 µM

Exendin-4
EC80 (GLP1R): 0.24 µM

Motilin
EC80 (MLNR): 0.11 µM

CC(=O)OCC[N+](C)(C)C [Acetylcholine]
EC80 (CHRM5): 150 µM
EC80 (CHRM4): 200 µM
EC80 (CHRM2): 230 µM

CCCCC[C@H](O)/C=C/[C@H]1[C@H](O)CC(=O)[C@@H]1C/C=C\CCCC(=O)O [Prostaglandin E2]
EC80 (PTGER2): 42 µM
EC80 (PTGER3): 0.98 µM
EC80 (PTGER4): 0.14 µM

Neuromedin U-25
EC80 (NMU1R): 0.092 µM

RPPGFSPFR [Bradykinin]
EC80 (BDKRB2): 0.035 µM

TIP-39
EC80 (PTHR2): 0.13 µM

Orphanin FQ
EC80 (OPRL1): 0.15 µM

Relaxin-3
EC80 (RXFP3): 3.1 µM

Ghrelin
EC80 (HSR1A): 0.38 µM

O=C(O)CCc1ccc(NCc2cccc(Oc3ccccc3)c2)cc1 [GW9508]
EC80 (GPR120): 570 µM

Pancreatic polypeptide
EC80 (PPYR1 (NPY4)): 0.062 µM

Orexin A
EC80 (HCRTR1): 0.52 µM

Angiotensin II
EC80 (AGTR1): 0.15 µM

TFLLR-NH2
EC80 (F2R): 1300 µM

CNC[C@H](O)c1cccc(O)c1 [Phenylephrine]
EC80 (ADRA1B): 10 µM

B1: CCL25 (protein, UniProt O15444 24-150, looked up)
C-C motif chemokine 25: QGVFEDCCLAYHYPIGWAVLRRAWTYRIQEVSGSCNLPAAIFYLPKRHRKVCGNPKSREVQRAMKLLDARNKVFAKLHHNTQTFQAGPHAVKKLSSGNSKLSSSKFSNPISSSKRNVSLLISANSGL
EC80 (CCR9): 14 µM
